Test results as given in patent US5840684A, “Glycopeptide antibiotic derivatives” (Eli Lilly and Company, priority 1995, dated 1998).
In brackets after ≈: the same amount, converted by molar mass.

Tests used:
[1] = test system: Staphylococcus aureus S13E; assay type: cell-based
Protocol: (§1) The MIC's were determined using a standard broth micro-dilution assay.

[2] = test system: Staphylococcus epidermidis 270; assay: broth micro-dilution MIC; assay type: cell-based
Protocol: (§2) The formula I compounds have in vitro and in vivo activity against Gram-positive pathogenic bacteria. The MIC's were determined using a standard broth micro-dilution assay.

[3] = test system: Staphylococcus haemolyticus 105; assay: broth micro-dilution MIC; assay type: cell-based
Protocol: as §2

[4] = test system: Streptococcus pneumoniae P1; assay: broth micro-dilution MIC; assay type: cell-based
Protocol: as §2

[5] = test system: Haemophilus influenzae RD; assay: broth micro-dilution MIC; assay type: cell-based; details: Haemophilus influenzae RD
Protocol: as §2

Entercoccus faecium 180 = assay: broth micro-dilution MIC; assay type: cell-based; details: Entercoccus faecium 180
Protocol: as §2

[6] = test system: Staphylococcus haemolyticus 415; assay: broth micro-dilution MIC; assay type: cell-based
Protocol: as §2

[7] = test system: Staphylococcus aureus X400; assay: broth micro-dilution MIC; assay type: cell-based
Protocol: as §1

Entercoccus faecium 276 = assay: broth micro-dilution MIC; assay type: cell-based
Protocol: as §1

[8] = test system: Streptococcus pyogenes C203; assay: broth micro-dilution MIC; assay type: cell-based
Protocol: as §1

[9] = test system: Staphylococcus aureus 447; assay: broth micro-dilution MIC; assay type: cell-based
Protocol: as §1

[10] = test system: Staphylococcus aureus SA1199A; assay: broth micro-dilution MIC; assay type: cell-based
Protocol: as §1

[11] = test system: Entercoccus faecium 180-1; assay: broth micro-dilution MIC; assay type: cell-based
Protocol: as §1

[12] = test system: Staphylococcus aureus 446; assay: broth micro-dilution MIC; assay type: cell-based
Protocol: as §1

[13] = test system: Staphylococcus aureus 489; assay: broth micro-dilution MIC; assay type: cell-based
Protocol: as §1

[14] = test system: vancomycin-resistant enterococci; assay: broth micro-dilution, mean geometric MIC; assay type: cell-based, Enterococcus faecium and Enterococcus faecalis; details: enterococci, 24-hour incubation
[15] = test system: vancomycin-susceptible enterococci; assay: broth micro-dilution, mean geometric MIC; assay type: cell-based, Enterococcus faecium and Enterococcus faecalis; details: enterococci, 24-hour incubation
[16] = test system: Staphylococcus aureus SA1199B; assay type: cell-based
Protocol: as §1

[17] = test system: Enterococcus gallinarum 245; assay: broth micro-dilution MIC; assay type: cell-based; details: Enterococcus gallinarum 245
Protocol: as §2

Entercoccus faecium 2041 = assay: broth micro-dilution MIC; assay type: cell-based; details: Entercoccus faecium 2041
Protocol: as §2

[18] = test system: Staphylococcus aureus X778; assay: broth micro-dilution MIC; assay type: cell-based
Protocol: as §1

[19] = test system: Staphylococcus aureus SA1199; assay: broth micro-dilution MIC; assay type: cell-based
Protocol: as §1

Row | Compound | MIC [1] | MIC [2] | MIC [3] | MIC [4] | MIC [5] | MIC (Entercoccus faecium 180) | MIC [6] | MIC [7] | MIC [8] | MIC [9] | MIC [10] | MIC [11] | MIC [12] | MIC [13] | mean geometric MIC, Vancomycin Resistant Strains [14] | mean geometric MIC, Vancomycin Sensitive Strains [15] | MIC [16] | MIC [17] | MIC (Entercoccus faecium 2041) | MIC [18] | further results
1 | CNC(CC(C)C)C(=O)NC1C(=O)NC(CC(N)=O)C(=O)NC2C(=O)NC3C(=O)NC(C(=O)NC(C(=O)O)c4cc(O)cc(O)c4-c4cc3ccc4O)C(OC3CC(C)(N)C(O)C(C)O3)c3ccc(c(Cl)c3)Oc3cc2cc(c3OC2OC(CO)C(O)C(O)C2OC2CC(C)(NCc3c(OC)ccc4ccccc34)C(O)C(C)O2)Oc2ccc(cc2Cl)C1O (centres unmarked) [Compound 9] | 0.5 µg/mL (≈ 0.284 µM) | 16 µg/mL (≈ 9.08 µM) | 4 µg/mL (≈ 2.27 µM) | ≤ 0.06 µg/mL | ≤ 0.06 µg/mL | 1 µg/mL (≈ 0.567 µM) | 4 µg/mL (≈ 2.27 µM) | 0.5 µg/mL (≈ 0.284 µM) | ≤ 0.06 µg/mL | 4 µg/mL (≈ 2.27 µM) | ≤ 0.06 µg/mL | ≤ 0.06 µg/mL | 2 µg/mL (≈ 1.13 µM) | 0.5 µg/mL (≈ 0.284 µM) | 11 µg/mL | 0.38 µg/mL |  |  |  |  | MIC (Entercoccus faecium 276): 0.26 µg/mL (≈ 0.148 µM)
2 | CNC(CC(C)C)C(=O)NC1C(=O)NC(CC(N)=O)C(=O)NC2C(=O)NC3C(=O)NC(C(=O)NC(C(=O)O)c4cc(O)cc(O)c4-c4cc3ccc4O)C(OC3CC(C)(N)C(O)C(C)O3)c3ccc(c(Cl)c3)Oc3cc2cc(c3OC2OC(CO)C(O)C(O)C2OC2CC(C)(NCc3ccc(-c4ccccc4C)cc3)C(O)C(C)O2)Oc2ccc(cc2Cl)C1O (centres unmarked) [Compound 209] | 0.5 µg/mL (≈ 0.282 µM) | 0.15 µg/mL (≈ 0.0846 µM) | 0.5 µg/mL (≈ 0.282 µM) | ≤ 0.06 µg/mL | 16 µg/mL (≈ 9.03 µM) | ≤ 0.06 µg/mL | 1 µg/mL (≈ 0.564 µM) | 1 µg/mL (≈ 0.564 µM) | ≤ 0.06 µg/mL | 1 µg/mL (≈ 0.564 µM) | ≤ 0.06 µg/mL | ≤ 0.06 µg/mL | 1 µg/mL (≈ 0.564 µM) | 1 µg/mL (≈ 0.564 µM) | 1.2 µg/mL | 0.136 µg/mL | 0.5 µg/mL (≈ 0.282 µM) | 1 µg/mL (≈ 0.564 µM) | ≤ 0.06 µg/mL | 1 µg/mL (≈ 0.564 µM) | 
3 | CNC(CC(C)C)C(=O)NC1C(=O)NC(CC(N)=O)C(=O)NC2C(=O)NC3C(=O)NC(C(=O)NC(C(=O)O)c4cc(O)cc(O)c4-c4cc3ccc4O)C(OC3CC(C)(N)C(O)C(C)O3)c3ccc(c(Cl)c3)Oc3cc2cc(c3OC2OC(CO)C(O)C(O)C2OC2CC(C)(NCc3ccc(-c4ccc(C)c(C)c4)cc3)C(O)C(C)O2)Oc2ccc(cc2Cl)C1O (centres unmarked) [Compound 221] | 0.5 µg/mL (≈ 0.28 µM) |  | 1 µg/mL (≈ 0.56 µM) | ≤ 0.06 µg/mL | 32 µg/mL (≈ 17.9 µM) | ≤ 0.06 µg/mL | 2 µg/mL (≈ 1.12 µM) | 0.5 µg/mL (≈ 0.28 µM) | ≤ 0.06 µg/mL | 0.5 µg/mL (≈ 0.28 µM) | ≤ 0.06 µg/mL | ≤ 0.06 µg/mL | 1 µg/mL (≈ 0.56 µM) |  | 0.71 µg/mL | 0.041 µg/mL | 1 µg/mL (≈ 0.56 µM) | 2 µg/mL (≈ 1.12 µM) | ≤ 0.06 µg/mL | 0.5 µg/mL (≈ 0.28 µM) | MIC [19]: 1 µg/mL (≈ 0.56 µM)
4 | C=CCCCOc1ccc(CNC2(C)CC(OC3C(Oc4c5cc6cc4Oc4ccc(cc4Cl)C(OC4CC(C)(N)C(O)C(C)O4)C4NC(=O)C(NC(=O)C6NC(=O)C(CC(N)=O)NC(=O)C(NC(=O)C(CC(C)C)NC)C(O)c6ccc(c(Cl)c6)O5)c5ccc(O)c(c5)-c5c(O)cc(O)cc5C(C(=O)O)NC4=O)OC(CO)C(O)C3O)OC(C)C2O)cc1 (centres unmarked) [Compound 226] | 0.5 µg/mL (≈ 0.283 µM) | 1 µg/mL (≈ 0.566 µM) | 2 µg/mL (≈ 1.13 µM) | ≤ 0.06 µg/mL | 32 µg/mL (≈ 18.1 µM) | ≤ 0.06 µg/mL | 1 µg/mL (≈ 0.566 µM) |  | ≤ 0.06 µg/mL | 0.5 µg/mL (≈ 0.283 µM) |  | ≤ 0.06 µg/mL | 1 µg/mL (≈ 0.566 µM) | 0.5 µg/mL (≈ 0.283 µM) | 1.6 µg/mL | 0.041 µg/mL | 1 µg/mL (≈ 0.566 µM) | 1 µg/mL (≈ 0.566 µM) | ≤ 0.06 µg/mL |  | MIC [19]: 1 µg/mL (≈ 0.566 µM)
